From ChEMBL document CHEMBL2380259, “Indazole-based potent and cell-active Mps1 kinase inhibitors: rational design from pan-kinase inhibitor anthrapyrazolone (SP600125)” (J Med Chem, 2013) come the findings set out here.

The test system of series [1] is A549. Nature of the series: cells. As to conditions: Homo sapiens, A549, 72 h.
In series [2] the target is T1, Dual specificity protein kinase TTK (Homo sapiens, UniProt P33981).
T1 sequence (P33981 whole entry): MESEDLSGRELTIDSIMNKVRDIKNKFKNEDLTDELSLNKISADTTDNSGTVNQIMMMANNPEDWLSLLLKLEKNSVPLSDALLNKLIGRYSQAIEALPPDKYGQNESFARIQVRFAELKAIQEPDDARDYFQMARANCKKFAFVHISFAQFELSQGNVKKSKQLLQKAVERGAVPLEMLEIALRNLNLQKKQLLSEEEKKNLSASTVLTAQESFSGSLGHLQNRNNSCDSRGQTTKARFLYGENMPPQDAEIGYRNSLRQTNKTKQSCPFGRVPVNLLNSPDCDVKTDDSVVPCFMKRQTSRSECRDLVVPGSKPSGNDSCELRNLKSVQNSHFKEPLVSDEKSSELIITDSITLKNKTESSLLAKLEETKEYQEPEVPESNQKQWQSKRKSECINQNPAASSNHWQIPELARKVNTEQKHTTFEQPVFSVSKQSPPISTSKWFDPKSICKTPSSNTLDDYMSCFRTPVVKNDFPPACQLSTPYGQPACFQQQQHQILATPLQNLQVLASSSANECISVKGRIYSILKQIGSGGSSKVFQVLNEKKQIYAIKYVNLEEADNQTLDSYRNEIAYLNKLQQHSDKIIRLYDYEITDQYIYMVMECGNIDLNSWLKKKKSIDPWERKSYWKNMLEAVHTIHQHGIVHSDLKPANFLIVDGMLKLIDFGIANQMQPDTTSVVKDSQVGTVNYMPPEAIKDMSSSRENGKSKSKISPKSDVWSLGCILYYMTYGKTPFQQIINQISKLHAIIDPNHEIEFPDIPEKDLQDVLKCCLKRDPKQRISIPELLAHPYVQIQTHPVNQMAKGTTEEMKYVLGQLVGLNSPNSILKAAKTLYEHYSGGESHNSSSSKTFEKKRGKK
Nature of the series: Inhibition of MPS1 (unknown origin) using biotin-labeled AGAGLARHTDDEMTGYVA as substrate after 90 mins by DELFIA.

The target of series [3] is Mitogen-activated protein kinase 8 (Homo sapiens, UniProt P45983). Kind of series: Inhibition of JNK1 (unknown origin) using ATF2 as substrate measured after 1 hr by ELISA.
Sequence of Mitogen-activated protein kinase 8 (P45983 whole entry): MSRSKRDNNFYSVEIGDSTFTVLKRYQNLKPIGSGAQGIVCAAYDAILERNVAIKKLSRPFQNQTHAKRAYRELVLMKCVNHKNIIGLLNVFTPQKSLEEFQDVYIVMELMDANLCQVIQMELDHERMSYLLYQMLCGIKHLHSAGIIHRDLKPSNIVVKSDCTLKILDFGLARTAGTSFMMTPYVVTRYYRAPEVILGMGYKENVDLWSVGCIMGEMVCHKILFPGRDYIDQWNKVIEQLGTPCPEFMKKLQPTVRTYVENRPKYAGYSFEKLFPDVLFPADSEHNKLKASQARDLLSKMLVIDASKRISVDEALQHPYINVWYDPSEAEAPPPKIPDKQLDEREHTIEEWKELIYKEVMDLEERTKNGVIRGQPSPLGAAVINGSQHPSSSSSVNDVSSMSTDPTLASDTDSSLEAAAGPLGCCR
Series [4] can be described thus: Lipophilicity index, log K of the compound by RP-HPLC analysis. In kind it is physicochemical.
Series [5] concerns the target T1, Dual specificity protein kinase TTK. Kind of series: Inhibition of FLAG-tagged MPS1 phosphorylation in human RERF-LC-AI Tet-off cells after 3 hrs. In kind it is cell-based.
Series [6] in a line: Apparent permeability across MDCK cells. The series is classed as ADME, cell-based, Canis lupus familiaris. As to conditions: dog.
Series [7] can be described thus: Volume of distribution at steady state in Sprague-Dawley rat at 0.5 mg/kg, iv by LC-MS/MS analysis. In kind it is ADME, organism-based. Also noted: dose 0.5 mg/kg, route intravenous. To be noted: in vivo, read-out: Vdss.
Series [8] addresses Serine/threonine-protein kinase PLK1 (Homo sapiens, UniProt P53350). Kind of series: Inhibition of human PLK1.
Series [9] in a line: Clearance in Sprague-Dawley rat at 0.5 mg/kg, iv by LC-MS/MS analysis. To be noted: in vivo. The series is classed as ADME, organism-based. Also noted: dose 0.5 mg/kg, route intravenous.
A short description of series [10]: Metabolic stability in Sprague-Dawley rat hepatocytes assessed as compound remaining at 2 uM after 1 hr by LC-MS/MS analysis. The series is classed as ADME, cell-based, Hepatocyte. As to conditions: read-out: Stability.
Series [11] in a line: Oral bioavailability in Sprague-Dawley rat at 1 mg/kg by LC-MS/MS analysis. The series is classed as ADME, organism-based. To be noted: in vivo.
Series [12] can be described thus: AUC in Sprague-Dawley rat at 1 mg/kg, po by LC-MS/MS analysis. In kind it is ADME, organism-based. The arrangement: dose 1 mg/kg, route oral. As to conditions: plasma.
Series [13] in a line: Cmax in Sprague-Dawley rat at 1 mg/kg, po by LC-MS/MS analysis. The series is classed as ADME, organism-based. The arrangement: dose 1 mg/kg, route oral. As to conditions: in vivo.
For series [14], the target named is T1, Dual specificity protein kinase TTK.

For orientation: IC50 means the concentration needed to halve the response being measured. Higher therefore signals a need for much substance. In general, Papp refers to a coefficient for how fast a substance crosses the barrier. As usually defined, the clearance is the rate of elimination divided by the concentration. Lower therefore signals inefficient removal. What is called bioavailability is dose-corrected exposure relative to a reference, in per cent. One may read the AUC as concentration integrated over time. As usually defined, the Cmax is the maximum level reached in the sampled fluid or tissue.

Sequence of Serine/threonine-protein kinase PLK1 (P53350 whole entry): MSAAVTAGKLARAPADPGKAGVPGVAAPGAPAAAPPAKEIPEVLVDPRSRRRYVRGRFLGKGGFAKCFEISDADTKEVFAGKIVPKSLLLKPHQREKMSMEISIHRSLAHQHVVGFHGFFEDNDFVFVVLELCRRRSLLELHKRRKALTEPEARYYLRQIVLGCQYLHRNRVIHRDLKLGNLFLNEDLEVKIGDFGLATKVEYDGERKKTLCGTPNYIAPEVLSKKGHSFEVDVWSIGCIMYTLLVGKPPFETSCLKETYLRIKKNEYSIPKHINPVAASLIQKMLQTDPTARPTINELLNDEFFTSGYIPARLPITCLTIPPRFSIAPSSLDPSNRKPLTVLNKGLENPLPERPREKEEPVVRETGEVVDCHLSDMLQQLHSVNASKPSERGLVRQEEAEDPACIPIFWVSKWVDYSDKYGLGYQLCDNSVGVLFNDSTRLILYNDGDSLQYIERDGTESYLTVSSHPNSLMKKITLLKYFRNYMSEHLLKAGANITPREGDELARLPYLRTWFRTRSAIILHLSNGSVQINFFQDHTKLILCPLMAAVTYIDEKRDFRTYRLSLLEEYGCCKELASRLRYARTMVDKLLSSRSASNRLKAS

The compound `CCc1cccc(CC)c1NC(=O)c1nn(C)c2c1CCc1cnc(Nc3ccc(C(=O)NC4CCN(C)CC4)cc3OC(F)(F)F)nc1-2` returned a concentration for half-maximal inhibition (IC50) in series [1] of 1250 nM. This counts as single-digit micromolar.

In the case of `Cc1cc(N2CCOCC2)ccc1Nc1nc(NC2CCCCC2)c2nc[nH]c2n1`, in series [1], the IC50 is more than 10000 nM.

In series [2], `CCOc1ccc2[nH]nc(-c3ccccc3)c2c1` showed an IC50 of 498 nM.

`CCOc1ccc2[nH]nc(-c3ccc(NC(C)=O)cc3)c2c1`: the IC50 was 438 nM in [2] and 169 nM in series [3].

For the compound `CCOc1ccc2[nH]nc(-c3cccc(NC(C)=O)c3)c2c1`, the IC50 in [2] was found to be 116 nM; in series [3] it was 79.5 nM.

With `CCOc1ccc2[nH]nc(-c3cccc(C(N)=O)c3)c2c1`, the half-maximal inhibitory concentration (IC50) in [2] was determined as 189 nM; in [3], 42.8 nM.

On to `CCOc1ccc2[nH]nc(-c3cccc(S(N)(=O)=O)c3)c2c1`, for which the “log K” value in [4] turned out to be 0.79. Besides, the 50% inhibitory concentration (IC50) was 28 nM in series [2], 2740 nM in series [5], more than 20000 nM in series [1] and 150 nM in series [3].

Consider `CCOc1cc2c(-c3cccc(S(N)(=O)=O)c3)n[nH]c2cc1C#N`, for which the “log K” value in [4] amounted to 0.86. Also, the IC50 in series [2] was 17 nM; in series [5] it was 3350 nM; in series [1], more than 20000 nM; in series [3], 175 nM.

In the case of `CCOc1cc2c(-c3cccc(NC(C)=O)c3)n[nH]c2cc1C#N`, the “log K” value in [4] is 0.87. Besides, the IC50 in [2] was 32 nM; in series [5], 9720 nM; in series [1], 6380 nM; in series [3], 43 nM.

For `CCOc1cc2c(-c3cccc(S(N)(=O)=O)c3)n[nH]c2cc1-c1ccccc1`, in series [4], the “log K” value turned out to be 0.91. In addition, the IC50 was 173 nM in series [2], more than 10000 nM in series [5], more than 10000 nM in series [1] and 1030 nM in [3].

Consider `CCOc1cc2c(-c3cccc(S(N)(=O)=O)c3)n[nH]c2cc1-c1cn[nH]c1`, for which the “log K” value in series [4] is 0.74. Moreover, the IC50 in [2] was 9.76 nM; in series [5], 2070 nM; in [1] it was more than 10000 nM; in series [3], 141 nM.

As to `CCOc1cc2c(-c3cccc(S(N)(=O)=O)c3)n[nH]c2cc1-c1cnn(C)c1`, the “log K” value in series [4] worked out at 0.79. The Papp in [6] was found to be 0.6 ×10⁻⁶ cm/s. In addition, the IC50 in series [2] was found to be 3.06 nM; in series [5], 85.8 nM; in series [1], 1020 nM; in [3], 93.7 nM.

For `CCOc1cc2c(-c3ccc(C)c(S(N)(=O)=O)c3)n[nH]c2cc1-c1cnn(C)c1`, in series [4], the “log K” value amounted to 0.82. For the same compound, the half-maximal inhibitory concentration (IC50) is 3.67 nM in series [2], 198 nM in series [5], 686 nM in [1] and 43.5 nM in [3].

`CCOc1cc2c(-c3cccc(S(N)(=O)=O)c3)n[nH]c2cc1-c1cnn(CC(C)C)c1`: the “log K” value in [4] amounted to 0.87. Moreover, the IC50 in [2] was found to be 119 nM; in series [5] it was 4110 nM; in [1], 6460 nM; in [3] it was 441 nM.

As for `Cn1cc(-c2cc3[nH]nc(-c4cccc(S(N)(=O)=O)c4)c3cc2OC2CCCCC2)cn1`, in [4], the “log K” value amounted to 0.93. In addition, the IC50 in [2] worked out at 7.93 nM; in series [5] it was 74 nM; in [1] it was 646 nM; in series [3] it was 118 nM.

For `Cn1cc(-c2cc3[nH]nc(-c4cccc(S(N)(=O)=O)c4)c3cc2NC2CCCCC2)cn1`, the “log K” value in [4] came to 0.92. For the same compound, in series [7], the Vd was 2.8 L/kg. Besides, the IC50 in series [8] is more than 5000 nM; in series [2] it was 10.4 nM; in series [5], 20.5 nM; in series [1], 152 nM; in [3], 37 nM. Moreover, the apparent permeability coefficient (Papp) in [6] is 2.69 ×10⁻⁶ cm/s. The same compound had a clearance in [9] of 33 mL/min/kg. Further, the remaining at 1 h, 2 µM in series [10] came to 69%. The bioavailability in series [11] was 2.3%. Further, the AUC in series [12] was 11.5 ng·h/mL. Further, the Cmax in [13] came to 1.4 ng/mL.

Consider `CC(=O)Nc1cccc(-c2n[nH]c3cc(-c4cnn(C)c4)c(NC4CCCCC4)cc23)c1`, for which the “log K” value in series [4] is on record as 0.94. In series [7], the Vd was determined as 1 L/kg. The IC50 in series [8] is more than 5000 nM; in series [2], 12 nM; in [5] it was 30.4 nM; in series [1], 283 nM; in [3], 12.1 nM. In addition, the apparent permeability coefficient (Papp) in series [6] amounted to 20.5 ×10⁻⁶ cm/s. The compound also returned a clearance in series [9] of 19 mL/min/kg. Further, the remaining at 1 h, 2 µM in [10] is 64%. Also, in series [11], the bioavailability is 17%. Further, in [12], the AUC was 149 ng·h/mL. Moreover, in series [13], the Cmax worked out at 18 ng/mL.

`c1ccc(-c2[nH]nc3ccccc23)cc1` displayed an IC50 in series [2] of 2100 nM.

In the case of `Oc1c2ccccc2c2c3c(cccc13)N=N2` [SP-600125], inhibition in [14] was half-maximal at 98 nM (IC50).
